In patent US20090291999A1, “Agent Exhibiting a Neurotropic, Neuromodulator, Cerebrovascular and Anti-Stroke Activity” (AKHAPKINA, Valentina Ivanovna, priority 2006, published 2009):
Marks after values point to notes of the source that are not given here.

Legend:
Toxicity (LD30) = details: in vivo
[1] = system: rats with hemorrhagic stroke (intracerebral post-traumatic hematoma); assay: Hemorrhagic stroke model: conditioned reflex of passive avoidance (CRPA); details: for Latent time of entering into a dark chamber / Number of rats which did not entered a dark chamber: HS rats, 100 mg/Kg
Experimental: (§1) Experiments have been conducted on white outbred male rats having weights from 200 to 250 grams. The rats have been held in vivarium conditions with free access to meals and water, under the natural change of days and nights. For the purpose of generating hemorrhagic stroke (HS) in rats narcotized with chloral hydrate (400 mg/Kg) stereotaxic craniotomy was conducted and then brain tissue in the capsula interna area was destructed with a mandarin knife, and blood (0.02 to 0.03 mL) taken under a rat tongue was injected into the place of destruction. Thus, local autohemorrhagic bilateral stroke was generated in the capsula interna area (diameter 2 mm, depth 3 mm) without damaging the above-located brain formations and neocortex. Falsely operated animals and animals with HS fed with a saline were used as the control animals. Intragastric administration of Phenotropil at a dose of 100 mg/Kg was performed with the use of a special tube in 5 hours after the operation and then daily for 7 days at the time of the day±3 minutes.
(§2) The Phenotropil influence was evaluated for survivability of the animals, for the neurologic deficit level on the McGrow stroke-index scale in the modification of I. V. Gannushkina (1977) and in the Rotarod test, for muscular tonus maintenance in the test of chinning up on a horizontal bar, for orientation and exploration behavior in the open-field test. Study of cognitive functions was conducted on a standard unit for conditioned reflex of passive avoidance (CRPA). A test for CRPA repetition (for maintenance of a memory trail) was conducted in 24 hours after training as well as on the 3rd, 7th and 14th days after the operation. The latent time of the first entering in a dark chamber was registered when the burrow reflex maintenance was evaluated.

[2] = system: rats with hemorrhagic stroke (intracerebral post-traumatic hematoma); assay: Hemorrhagic stroke model: open-field orientation-and-exploratory behavior; details: for Exploration of holes / Horizontal motion activity / Total index / Vertical motion activity: HS + Phenotropil
Experimental: as §1, §2

[3] = system: rats with hemorrhagic stroke (intracerebral post-traumatic hematoma); assay: Hemorrhagic stroke model: neurologic deficit on McGrow's scale; details: HS rats, 100 mg/Kg internally; 1 day after operation
Experimental: as §1, §2

[4] = system: rats with hemorrhagic stroke (intracerebral post-traumatic hematoma); assay: Hemorrhagic stroke model: survivability of animals
Experimental: (§3) Experiments have been conducted on white outbred male rats having weights from 200 to 250 grams. The rats have been held in vivarium conditions with free access to meals and water, under the natural change of days and nights. For the purpose of generating hemorrhagic stroke (HS) in rats narcotized with chloral hydrate (400 mg/Kg) stereotaxic craniotomy was conducted and then brain tissue in the capsula interna area was destructed with a mandarin knife, and blood (0.02 to 0.03 mL) taken under a rat tongue was injected into the place of destruction. Thus, local autohemorrhagic bilateral stroke was generated in the capsula interna area (diameter 2 mm, depth 3 mm) without damaging the above-located brain formations and neocortex. Falsely operated animals and animals with HS fed with a saline were used as the control animals. […]
The Phenotropil influence was evaluated for survivability of the animals, for the neurologic deficit level on the McGrow stroke-index scale in the modification of I. V. Gannushkina (1977) and in the Rotarod test, for muscular tonus maintenance in the test of chinning up on a horizontal bar, for orientation and exploration behavior in the open-field test. […] The latent time of the first entering in a dark chamber was registered when the burrow reflex maintenance was evaluated.

[5] = Metabolism and excretion in the organism; details: in vivo
[6] = system: rats with hemorrhagic stroke (intracerebral post-traumatic hematoma); assay: Hemorrhagic stroke model: burrow reflex; details: HS rats, one-time administration; 1 day after operation
Experimental: as §3
The Phenotropil influence was evaluated for survivability of the animals, for the neurologic deficit level on the McGrow stroke-index scale in the modification of I. V. Gannushkina (1977) and in the Rotarod test, for muscular tonus maintenance in the test of chinning up on a horizontal bar, for orientation and exploration behavior in the open-field test. […] The latent time of the first entering in a dark chamber was registered when the burrow reflex maintenance was evaluated. […]

[7] = repetition of the CRPA in 3 days
[8] = repetition of the CRPA in 7 days
[9] = repetition of the CRPA in 14 days

## NC(=O)CN1CC(c2ccccc2)CC1=O (centres unmarked) [Phenotropil, N-carbomoyl-methyl-4-phenyl-2-pyrrolidon]
Toxicity (LD30)
  LD30: 800 mg/kg
[1]; 100 mg/Kg one-time administration 5 hours after operation, CRPA one day after training
  Increase of the latent time of entering the dark chamber in comparison to the HS-group: 48%
[1]; 100 mg/Kg one-time administration 5 hours after operation, after one day
  Increase of the number of animals with maintained memory in comparison to the HS-group: 60%
[1]; repetition of the CRPA in 24 hours after training
  Latent time of entering into a dark chamber: 101.1 ± 24.2 s
[1]; repetition of the CRPA in 24 hours after training, 100 mg/kg
  Number of rats which did not entered a dark chamber: 40%
[1]; [7]
  Latent time of entering into a dark chamber: 98.3 ± 18.7 s
  Number of rats which did not entered a dark chamber: 40** %
[1]; [8]
  Latent time of entering into a dark chamber: 75.2 ± 24.1 s
  Number of rats which did not entered a dark chamber: 30** %
[1]; [9]
  Latent time of entering into a dark chamber: 83.2 ± 26.7 s
  Number of rats which did not entered a dark chamber: 40** %
[2]; 1st day after operation
  Exploration of holes: 1.3 ± 0.5
  Horizontal motion activity: 8.8 ± 3.5
  Total index: 14.5 ± 5.5
  Vertical motion activity: 4.4 ± 2.1
[2]; 3rd day after operation
  Exploration of holes: 1.9 ± 0.7
  Horizontal motion activity: 15.2 ± 5.4
  Total index: 21.6 ± 6.1
  Vertical motion activity: 4.5 ± 1.5
[2]; 7th day after operation
  Exploration of holes: 4.6 ± 1.3
  Horizontal motion activity: 20.9 ± 4.1
  Total index: 36.4 ± 5.6
  Vertical motion activity: 10.9 ± 3.2
[2]; 14th day after operation
  Exploration of holes: 3.0 ± 0.7
  Horizontal motion activity: 12.2 ± 2.8
  Total index: 22.1 ± 3.5
  Vertical motion activity: 6.9 ± 1.9
[2]; registered in 7 days
  Increase of total index of motion behavior compared to rats of the HS group: 2.7 times
[3]
  Number of animals with flabbiness, slowness of motions: 50%
  Number of animals with paresis of 1-4 limbs: 30%
  Number of animals with weakness of limbs: 40* %
[4]; 100 mg/Kg once a day for 7 days, 14 days of observation
  Effect on death of the animals: completely prevented death of the animals
[4]; hemorrhagic stroke, 100 mg/Kg
  Cases in which death of animals was prevented: 100%
[5]
  Metabolism in the organism: not metabolized in the organism and goes out of it in the unchanged form
[6]
  Latent time of entering into a dark chamber during training in the burrow reflex: 30.6 ± 8.8
